Source: patent publication EP0366632A1, “Alternative energy substrates” (priority 1988, dated 1990)
Where “and” joins values, the source holds several entries; their conditions need not be identical. Equal entries are not always repeated.

What was measured:
[1] = system: Escherichia coli ATCC 8739; experiment: Microorganism count in 2% and 0.2% ester emulsions (Example 14); format: cell-based; details: for number of microorganisms: after 1-5 minutes, +37°C, starting concentration about 10⁴
Procedure: The emulsions contained egg-yolk phospholipid 1,2% and sterile water, in addition to ester. The emulsions were prepared aseptically, by emulsifying sterile-filtered ester with a steriled dispersion of egg-yolk phospholipids.
Aliquots of these emulsions were diluted with phosphate buffer (0.01 M, pH=7.0) in the proportions of 1 and 10 and 1 and 100 in respective emulsions. Escherichia coli ATCC 8739 was added to the solutions. The solutions were then incubated at +37°C for 20 hours. The microorganism count was carried out after 1-5 minutes, 2 and 20 hours, in the manner described in microbiological literature. Parallel with the above tests, a check was carried out on phospholipide solution 1,2% and TSB (Tryptone soya broth) with additions of Escherichia coli ATCC 8739. The latter substrate was tested to ascertain whether or not the control microorganisms were viable. […] The starting concentration was about 10⁴. In the samples containing 4-methyl-3-oxo-pentanoic acid ethyl ester having the concentrations of 2% and 0.2%, the number of microorganisms present per ml after 1-5 minutes was 0 and 10⁴ respectively. After 2 hours, the microorganism count was 0 and 10 respectively, and after 20 hours 0 and 10 respectively. In the samples containing 5-methyl-3-oxo-hexanoic acid ethyl ester with the concentrations of 2% and 0.2%, the microorganism count per ml was 10 and 10 respectively after 1-5 minutes, 0 and 0 respectively after 2 hours, and 0 and 0 respectively after 20 hours.

[2] = Cold storage of fat emulsion (Intralipid) with ester admixture: visual inspection, pH, mean particle size; format: physicochemical; details: for Mean particle size, X / pH / Mean particle size (single readings, Coulter nanosizer): Example 32: Intralipid 20%; for pH: after 5 day storage; for Mean particle size (single readings, Coulter nanosizer): listed as 5-methyl-3-oxo-pentanoic acid ethyl ester; for emulsion quality, daily visual inspection: Example 32: mother concentrate in Intralipid 20%; for emulsion quality, daily visual inspection / emulsion stability, daily visual inspection: +5°C, 5 days
Procedure: A so-called mother concentrate was prepared by dissolving 6 g of egg-yolk phospholipids in 40 g of 4-methyl-3-oxo-pentanoic acid ethyl ester at +60°C, while stirring. 34 g of 99% ethyl alcohol were then added to the solution, whereafter the solution was cooled to room temperature and dispensed into 20 ml glass flasks. Nitrogen gas was then bubbled through the liquid and the flasks then stoppered and capsuled. The bottles were then autoclaved at +120°C and at 118 kPa for 20 minutes. A 10% fat emulsion for parenteral nutrient administration (Intralipid^R retailed by KabiVitrum AB, Stockholm) was added to the preparation under strict asceptic conditions, to a 4-methyl-3-oxo-pentanoic acid ethyl ester concentration of 0.2, 1 and 3% respectively. The emulsion was shaken for 5 minutes in a shaking machine and then placed in a cold environment (+5°C). The emulsion was thereafter observed over a 5 day period, wherewith a daily inspection was carried out to assess the formation of oil droplets, creaming or oil separation. The assessment was made in comparison with a known emulsion for parenteral use (Intralipid^R 10%). […] Subsequent to 5 days storage, an analysis was made of the pH and mean particle size in a Coulter nanosizer. The following values were obtained:
(§1) A so-called mother concentrate produced by dissolving 6 g egg-yolk phospholipids in 40 g of 4-methyl-3-oxo-pentanoic acid-ethyl ester at +60°C, while stirring the system. 34 g of 99% ethyl alcohol were then added to the solution, whereafter the solution was cooled to room temperature and dispensed into 20 ml glass flasks. Nitrogen gas was perculated through the contents of the flasks, and the flasks subsequently stoppered and fitted with capsules. The flasks were then autoclaved at 120°C and 118 kPa over a period of 20 minutes. This preparation was added to a 20% fat emulsion (Intralipid^R) under strict aseptic conditions, such that the concentation of 4-methyl-3-oxo-pentanoic acid ethyl ester was 0.2 and 1 and 3% respectively. The emulsion was shaken for 5 minutes in a shaker and then placed in a cold environment (5°C). The emulsion was inspected over a period of 5 calender days, wherewith a visual inspection was carried out daily in order to ascertain the occurrence of any oil droplets that may form, creaming or oil separation. The assay was effected by comparison with a known emulsion for parenteral use (Intralipid^R 20%). […] The pH of the emulsion was measured after a 5 day storage period. The mean particle size was measured in a Coulter^R nanosizer. The following values were obtained:
as §1, with “prepara tion” for “preparation”, “10%” for “20%”, “10%).” for “20%).”, “obtained: […]” for “obtained:”

[3] = Total parenteral nutrition (TPN) with ester as energy substitute in rats; details: 9 days
Procedure: Sprague-Dawley male rats weighing 180-190 g were sur­gically fitted with a central vein catheter protected by a saddle (Roos et al, 1981). Total parenteral nutrition (TPN) was administered in accordance with the following standard formula: Fat: 8 g/kg body weight and 24 hours Nitrogen: 1,2 g/kg body weight and 24 hours Total energy supplied: 1257 kJ/kg body weight and 24 hours Liquid: 300 ml/kg body weight and 24 hours The glucose to fat ratio was 70-30 energy percent. The energy percentage obtained from the energy substitutes during the test period corresponded to about 5% NPC. The TPN-mixture was obtained by mixing Vamin^R 14 (a solution of essential and non-essential amino acids for paren­teral nutrient administration, retailed by KabiVitrum AB) with no electrolytes, glucose solution 50% and Intralipid^R 20% in suitable proportions and adding adequate quantities of electrolytes, trace minerals and vitamins. Subsequent to infusing the rats continuously for one week (20 hours/day), the animals were divided randomly into three groups, with 6 animals in each group. The animals of one group were administered with the same TPN-formula as that previously mentioned (the reference group). […] The compounds were given in a dosage of 2 g/kg body weight and 24 hours in a yield corres­ponding to equivalent glucose energy quantities. In other respects, the TPN-program or formula was the same as that for the reference group. The experiment was then continued for a further 9 days, during which the weights of the animals were recorded daily and urine collected and frozen. At the end of the test period, the rats were killed by heart puncture while under a pentobarbital anesthetic and an autopsy was performed on the rat carcasses with microscopic examination. The body organs were sent to a laboratory for pathological assay.

[4] = system: VSV (vesicular stomatitis virus); format: cell-based; details: 0.1% in tissue cultures; A549, GMK and fibroblasts; Figure 2

CCOC(=O)CC(=O)CC(C)C [5-methyl-3-oxo-hexanoic acid ethyl ester]
number of microorganisms ([1]; 0.2%): 10 per ml
microorganism count ([1]; 0.2%, after 2 hours): 0 per ml
microorganism count ([1]; 0.2%, after 20 hours): 0 per ml
number of microorganisms ([1]; 2%): 10 per ml
microorganism count ([1]; 2%, after 2 hours): 0 per ml
microorganism count ([1]; 2%, after 20 hours): 0 per ml
Mean particle size, X ([2]; 0.2% admix): 322
pH ([2]; 0.2% admix): 7.4
Mean particle size (single readings, Coulter nanosizer) ([2]; 0.2% admix): 317 and 321 and 324
Mean particle size, X ([2]; 1% admix): 319
pH ([2]; 1% admix): 7.0
Mean particle size (single readings, Coulter nanosizer) ([2]; 1% admix): 317 and 324 and 321
Mean particle size, X ([2]; 3% admix): 324
pH ([2]; 3% admix): 6.7
Mean particle size (single readings, Coulter nanosizer) ([2]; 3% admix): 324 and 328 and 321
emulsion quality, daily visual inspection ([2]; 0.2% addition): No change in quality
emulsion quality, daily visual inspection ([2]; 1% addition): No change in quality
emulsion quality, daily visual inspection ([2]; 3-percent mixture): fully acceptable over the first 4 days
emulsion stability, daily visual inspection ([2]; Example 33: pure ester in 10% fat emulsion (Intralipid), 0.2%): stable over the whole of the test period
emulsion stability, daily visual inspection ([2]; Example 33: pure ester in 10% fat emulsion, 1%): stable over the whole of the test period
emulsion stability, daily visual inspection ([2]; Example 33: pure ester in 10% fat emulsion, 3%): stable over the whole of the test period
emulsion stability, daily visual inspection ([2]; Example 33: pure ester in 10% fat emulsion, 5%): stable over the first 2 days
emulsion stability, daily visual inspection ([2]; Example 33: pure ester in 20 percent emulsion, 0.2%): remained stable over the whole of the test period
emulsion stability, daily visual inspection ([2]; Example 33: pure ester in 20 percent emulsion, 1%): remained stable over the whole of the test period
emulsion stability, daily visual inspection ([2]; Example 33: pure ester in 20 percent emulsion, 3%): remained stable for 1 day
toxicity at the dosages tested ([3]; 2 g/kg body weight and 24 hours): non-toxic
average growth per day during the whole of the test period ([3]; ester 2 g/kg body weight and 24 hours in place of equivalent glucose energy): 2.8 ± 0.2 g
suppression of replication of VSV [4]: replication can be inhibited
